From article PMC12406195, “Understanding the Modes of Action of β‑Ketoiminato Iridium(III) Complexes in Cancer Cells” (Inorganic Chemistry, 2025)

Legend:
MDA-MB-231 cells [1] = test: 3D spheroid live/dead viability assay; format: cell-based, human; settings: MDA-MB-231 spheroids, 100 μM, 48 h
Description: 3D cell cultures of cancer are good models for preclinical cancer research, as they are more representative of tumor microenvironments. MDA-MB-231 cells were maintained using the standard cell culture methods before seeding into round-bottom ultralow-attachment plates for 3D culture. Once the cells were seeded, the plate was centrifuged to assist with cell clumping at the bottom of the well and facilitate uniform spheroid formation. After 24 h, medium containing collagen I was added, and the cells were allowed to aggregate further. After sufficient growth of the spheroids (Day 4 – Figure ), the cells were treated with 100 μM of 1 for 48 h. The higher concentration was chosen, as it has been reported that spheroids require higher drug doses than two-dimensional (2D) experiments.
Live and dead cells were then visualized using the LIVE/DEAD Viability/Cytotoxicity Kit by Invitrogen. […]
An equal volume of Annexin V and 7-AAD solution was added to 100 μL of the cell suspension, followed by a 20 min incubation at room temperature. The cells were then analyzed using the Muse Cell Analyzer (Merck Millipore). […]
A mixture of 50 μL of cell suspension and 5 μL of Caspase 3/7 antibody (diluted 1:8 in PBS) was prepared and incubated at room temperature for 30 minutes. […] Apoptotic cells were analyzed using the Muse Cell Analyzer. […]

MDA-MB-231 cells [2] = test: Reactive oxygen species (H2DCFDA fluorescence); format: cell-based, human; settings: MDA-MB-231, 100 μM, 4 h, compared to nontreated control
Description: To measure the degree of ROS produced in MDA-MB-231 cells, 2′,7′-dichlorodihydrofluorescein diacetate (H2DCFDA), a cell-permeable fluorescent dye, was used. H2DCFDA is deacetylated by esterases and consecutively oxidized by intracellular ROS into a fluorescent molecule, dichlorofluorescein (DCF).
MDA-MB-231 cells at 4000 cells/well were seeded into a black clear -bottom 96-well plate using phenol-red free complete RMPI medium, and incubated for 48 h. The cells were treated with 100 µM of 1 for 4 h alongside an untreated sample (control). 2′,7′ -dichlorodihydrofluorescein diacetate (H 2DCFDA, 20 μM final concentration in PBS ) was added for 45 min. […] Fluorescence images were obtained using a Zeiss Observer 7 inverted microscope at excitation at 488 nm and emission at 509 […]
Plasmid DNA (200 ng, pBOS -H2B-GFP, BD Biosciences) was incubated overnight at room temperature with 1 or CDDP at concentrations between 100 and 400 μM in double -distilled H2O (20 μL total volume). […] The experiment was conducted in two biological replicates, and the band intensities were quantified and analyzed using ImageJ software. […]
MDA-MB-231 cells were seeded in 6-well plates at a density of 1.2 × 10⁵ cells/well. […] The samples were then placed on microscope slides, covered with a coverslip, and their morphology was examined using a fluorescence microscope (Eclipse TS100, Nikon). […]

Substance: [Cp*Ir(C16H14NO)(PTA)](PF6) [Compound 1]
- Cytotoxicity in 3D spheroids (live/dead staining) (MDA-MB-231 cells [1]): significant cytotoxicity
- ROS generation (DCF fluorescence) (MDA-MB-231 cells [2]): increase in fluorescence
